# Reference: paper PMC4604124, “In Vitro Characterization of the Pharmacological Properties of the Anti-Cancer Chelator, Bp4eT, and Its Phase I Metabolites” (PLoS ONE, 2015)
# Where “and” joins values, the source holds several entries; their conditions need not be identical. Identical values can stand only once. Like-named read-outs stand apart in the source and are kept apart here.
# How the values were obtained:
# caspases 3/7 = assay: Caspase activity, luminescent kit, caspases 3/7; format: cell-based, human; details: for kaspáza (3) a 7, průměry (means of raw signal): mean of 4 experiments; for kaspáza (3) a 7, raw signal / kaspáza (3) a 7, signal / viabilita: individual experiments by date
# Method: To assess the effect of the compounds on caspase activity, MCF-7 cells were incubated with 100 nM Bp4eT or its metabolites for 3, 24 or 72 h/37°C in 96-well plates, as described above. The cells were then lysed by adding 100 μL of cold lysis buffer (100 mM HEPES, 10 mM CHAPS, 10 mM D-L-dithiothreitol, pH 7.4) to 100 μL of medium in each well. Lysates were immediately frozen at -80°C. Thawed lysates were used to assess caspase activity using luminescent kits for caspases 3/7, 8 and 9 (Promega, Madison, WI, USA). The luminescence was measured using the Tecan Infinite 200M plate reader. Caspase activity in the experimental groups was corrected according to the cellular viability of each group and expressed as a percentage of activity of the untreated control (100%).
# MCF-7 cells [1] = assay: Cell cycle analysis by flow cytometry (propidium iodide); format: cell-based, human; details: 0.1 μM, 72 h
# Method: To examine the effect of the agents on the cell cycle, MCF-7 cells were seeded in 60 mm Petri dishes at a density of 240,000 cells/dish and incubated with Bp4eT or its metabolites for 72 h/37°C. The cells were then harvested, fixed by ethanol and stained by propidium iodide (Molecular Probes, Eugene, OR, USA) for 30 min/37°C, as described previously. Cells were analyzed using Accuri C6 flow cytometer (Becton Dickinson and Company, San Jose, CA USA). Propidium iodide was excited at λex = 488 nm and fluorescence analyzed at λem = 585 nm (FL-2) with a total of 10,000 events collected per analysis.
# (§1) SigmaStat for Windows 3.5 (Systat Software, San Jose, CA, USA) statistical software package was utilized to analyze results. The data are expressed as the mean ± SD of a given number of experiments. Statistical significance was determined using a one-way ANOVA with a Bonferroni post-hoc test or Student’s t-test. The results were considered to be statistically significant when p < 0.05. The IC50 values were calculated using CalcuSyn 2.0 software (Biosoft, Cambridge, UK). Cell cycle analysis was evaluated using MultiCycle AV Software (Phoenix Flow Systems, San Diego, CA, USA).
# [2] = test system: HL-60 human promyelocytic leukemia cells; assay: MTT cytotoxicity assay, HL-60 cells; format: cell-based; details: for IC50: MTT
# Method: For cytotoxicity experiments, cancer cells were seeded at a density of 5,000 (MCF-7), 10,000 (HL-60) or 2,000 cells/well (HCT116 and A549) in 96-well plates (TPP) for 24 h/37°C prior to the addition of examined agents. The non-cancerous cells, 3T3 and H9c2 cells, were cultured for 24 h/37°C in 96-well plates at a density of 10,000 cells/well, the medium was then changed to serum- and pyruvate-free DMEM (Sigma-Aldrich) and incubated with the cells for another 24 h/37°C. The cytotoxic effects of Bp4eT and its metabolites were studied at different concentrations after a 72 h/37°C incubation. In order to aid the dissolution of the lipophilic ligands, 0.1% dimethyl sulfoxide (v/v) (DMSO; Sigma-Aldrich) was present in the culture medium of all groups. At this concentration, DMSO had no effect on cellular proliferation or viability.
# The viability of cells were determined using an MTT assay (Sigma-Aldrich) according to previously established methods. The optical density of soluble MTT was measured at λ = 570 nm, subtracting the λ = 690 nm background using a Tecan Infinite 200M plate reader (Tecan Group, Männedorf, Switzerland). The viability or proliferation of experimental groups was expressed as a percentage of the untreated controls (100%).
# as §1
# MCF-7 cells [3] = assay: Cellular 59Fe uptake from 59Fe2-transferrin; format: cell-based, human; set-up: key to Uptake 59Fe, Ave / Uptake 59Fe: % of internalized 59Fe in untreated control cells
# Procedure, shortened: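 Confluent MCF-7 cells were incubated 3 h at 37°C with 0.75 μM ⁵⁹Fe₂-transferrin (500 pCi/pmol Fe) plus chelator at 25 μM. Membrane-bound ⁵⁹Fe was released with Pronase (1 mg/mL, 30 min, 4°C). Pronase-insensitive internalized ⁵⁹Fe was expressed as % of untreated control.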
structure (smiles),measurement,setting,value
"CCNC(=S)NN=C(c1ccccc1)c1ccccn1 [Bp4eT, 2-benzoylpyridine 4-ethyl-3-thiosemicarbazone]","Activation of caspases 7, 8 and 9","caspases 3/7; 100 nM, 3 h, MCF-7, statement covers caspases 7, 8 and 9",did not activate any of the caspases
same,"Caspase 7 activity, % of the control","caspases 3/7; 100 nM, 24 h, MCF-7, corrected for viability",203%
same,"Caspase 7 activity, % of control","caspases 3/7; 100 nM, 72 h, MCF-7, corrected for viability",318%
same,"kaspáza (3) a 7, % kontroly","caspases 3/7; 3 hodiny (3 h), % of control",96.83%
same,"kaspáza (3) a 7, průměry (means of raw signal)",caspases 3/7; 3 hodiny (3 h),1616.38
same,"kaspáza (3) a 7, raw signal",caspases 3/7; 3 hodiny,1828 and 1581 and 1679 and 1377.5
same,"kaspáza (3) a 7, raw signal, průměry","caspases 3/7; 3 hodiny, mean",1616.38
same,"kaspáza (3) a 7, % kontroly","caspases 3/7; 3 hodiny, mean, normalised to viability",101.92 % kontroly
same,"kaspáza (3) a 7, signal / viabilita","caspases 3/7; 3 hodiny, normalised to viability",18.975 and 16.4111 and 17.4284 and 14.2987
same,"kaspáza (3) a 7, signal / viabilita, průměry","caspases 3/7; 3 hodiny, normalised to viability, mean",16.7783
same,"kaspáza (3) a 7, % kontroly","caspases 3/7; 24 hodin (24 h), % of control",107.61%
same,"kaspáza (3) a 7, průměry (means of raw signal)",caspases 3/7; 24 hodin (24 h),2465.5
same,"kaspáza (3) a 7, raw signal",caspases 3/7; 24 hodin,2823.5 and 2154.5 and 2683 and 2201
same,"kaspáza (3) a 7, raw signal, průměry","caspases 3/7; 24 hodin, mean",2465.5
same,"kaspáza (3) a 7, % kontroly","caspases 3/7; 24 hodin, mean, normalised to viability",203.48 % kontroly
same,"kaspáza (3) a 7, signal / viabilita","caspases 3/7; 24 hodin, normalised to viability",53.4249 and 40.7664 and 50.7664 and 41.6462
same,"kaspáza (3) a 7, signal / viabilita, průměry","caspases 3/7; 24 hodin, normalised to viability, mean",46.651
same,"kaspáza (3) a 7, % kontroly","caspases 3/7; 72 hodin (72 h), % of control",86.15%
same,"kaspáza (3) a 7, průměry (means of raw signal)",caspases 3/7; 72 hodin (72 h),6404.25
same,"kaspáza (3) a 7, raw signal",caspases 3/7; 72 hodin,10190.5 and 6963 and 3947 and 4516.5
same,"kaspáza (3) a 7, raw signal, průměry","caspases 3/7; 72 hodin, mean",6404.25
same,"kaspáza (3) a 7, % kontroly","caspases 3/7; 72 hodin, mean, normalised to viability",318.49 % kontroly
same,"kaspáza (3) a 7, signal / viabilita","caspases 3/7; 72 hodin, normalised to viability",376.172 and 257.032 and 145.7 and 166.722
same,"kaspáza (3) a 7, signal / viabilita, průměry","caspases 3/7; 72 hodin, normalised to viability, mean",236.406
same,G1 phase of the cell cycle,MCF-7 cells [1],not significantly (p > 0.05) different from the control
same,Percentage of cells in the S phase,MCF-7 cells [1]; control 15%,35%
same,Percentage of cells in the G2/M phase,MCF-7 cells [1]; control 33%,12%
same,"Therapeutic index, IC50 non-cancerous cells / IC50 neoplastic cells",[2]; 3T3/HL-60,436.3
same,"Therapeutic index, IC50 non-cancerous cells / IC50 neoplastic cells",[2]; H9c2/HL-60,174.7
same,"MTT, relative to control (0 = 100)","[2]; HL-60, 10 000 b/j, 0.1 nM, průměr (mean)",98.01
same,"MTT, relative to control (0 = 100)","[2]; HL-60, 10 000 b/j, 0.1 nM, single experiment (date)",96.1425 and 103.96 and 95.2755 and 95.4167 and 99.2528
same,"MTT, relative to control (0 = 100)","[2]; HL-60, 10 000 b/j, 0.3 nM, průměr (mean)",96.66
same,"MTT, relative to control (0 = 100)","[2]; HL-60, 10 000 b/j, 0.3 nM, single experiment (date)",99.4278 and 92.0645 and 96.8892 and 98.2749
same,"MTT, relative to control (0 = 100)","[2]; HL-60, 10 000 b/j, 1 nM, průměr (mean)",97.15
same,"MTT, relative to control (0 = 100)","[2]; HL-60, 10 000 b/j, 1 nM, single experiment (date)",95.2755 and 96.4389 and 98.8804 and 97.9877
same,"MTT, relative to control (0 = 100)","[2]; HL-60, 10 000 b/j, 3 nM, průměr (mean)",62.98
same,"MTT, relative to control (0 = 100)","[2]; HL-60, 10 000 b/j, 3 nM, single experiment (date)",50.186 and 52.1752 and 67.6874 and 81.8744
same,"MTT, relative to control (0 = 100)","[2]; HL-60, 10 000 b/j, 10 nM, průměr (mean)",3.98
same,"MTT, relative to control (0 = 100)","[2]; HL-60, 10 000 b/j, 30 nM, průměr (mean)",1.50
same,"MTT, relative to control (0 = 100)","[2]; HL-60, 10 000 b/j, 100 nM, průměr (mean)",1.69
same,IC50,"[2]; HL-60, 10 000 b/j, single experiment (date), read-out: IC50 měřené",2.84 nM and 3.65 nM and 4.08 nM
same,IC50,"[2]; Homo sapiens, HL-60, 72 h, HL-60, 72 h/37°C, mean ± SD, n ≥ 4, read-out: IC50",3 ± 1 nM
same,IC50,"[2]; Homo sapiens, HL-60, HL-60, 10 000 b/j, průměr (mean), read-out: IC50 měřené",3.48 nM
same,IC50,"[2]; Homo sapiens, HL-60, HL-60, 10 000 b/j, single experiment (date), read-out: IC50 měřené",3.35 nM
same,"Internalized 59Fe uptake, % of the control","MCF-7 cells [3]; 25 μM, 3 h/37°C, MCF-7, 0.75 μM 59Fe2-Tf",11.5%
same,"Uptake 59Fe, Ave","MCF-7 cells [3]; average of all replicates, Control Ave = 100",11.5476
same,Uptake 59Fe,"MCF-7 cells [3]; single replicate (three per date), Control Ave = 100",9.2904 and 11.2475 and 13.4264 and 10.306 and 10.873 and 13.9435 and 11.6905 and 10.1589 and 12.9919
